# Assay results taken from patent US11529321B2, “Use of aminomethylenecyclohexane-1,3-dione compound” (WIGEN BIOMEDICINE TECHNOLOGY (SHANGHAI) CO., LTD., priority 2017, dated 2022).
# Target: LC3B (Homo sapiens (Human), UniProt Q9GZQ8)
# Test: Fluorescence polarization assay, GST-LC3B with FITC-labeled peptide
# Method: Then the resulting mixture was incubated at 25° C. in the dark.
row,IC50 [µM],Structure (SMILES)
1,15 to 100,"O=C1CC(c2ccccc2)CC(=O)C1=CNc1ccccc1 (centres unmarked) [Compound 11, 5-Phenyl-2-((Phenylamino)Methylene)-Cyclohexane-1,3-Dione]"
2,100 to 1000,Cc1n[nH]c(NC=C2C(=O)CC(C)(C)CC2=O)c1-c1ccccc1 [Compound 17]
3,100 to 1000,CN(C)C=C1C(=O)CC2(CC2)CC1=O [Compound 22]
4,100 to 1000,CNC(=O)NC=C1C(=O)CCCC1=O [Compound 25]
5,100 to 1000,Cc1ccc(S(=O)(=O)NNC=C2C(=O)CCCC2=O)cc1 [Compound 26]
6,15 to 100,O=c1c(=CNc2ccccc2)c(=O)c2cccc3cccc1c32 [Compound 61]

row,Structure (SMILES),IC50 [µM]
1,"CN(C)C=C1C(=O)CC(c2ccccc2)CC1=O (centres unmarked) [Compound 1, 2-((Dimethylamino)Methylene)-5-Phenyl-Cyclohexane-1,3-Dione]",3 to 15
2,CC1(C)CC(=O)C(=CNCCN2CCN(C(=O)Cc3ccc(F)cc3)CC2)C(=O)C1 [Compound 46],100 to 1000
